Source: US4283420A, “Pharmaceutically active cyclohexyl compounds and their preparation” (Labaz, priority 1978, dated 1981)

Tests used:
male mice = assay: Sedative activity: Rotarod test; format: in vivo; conditions: at 550 mg/kg, peroral, mice
Procedure: This test is used for the purpose of assessing the ability of the animals to coordinate their movements. It uses a wooden cylinder which has a diameter of 4.8 cm and revolves at a speed of 4 revolutions/minute. The test is carried out on male mice weighing about 22 g. The products are administered perorally (p.o.) to batches of 10 animals per dose. The animals are placed on the apparatus 15 minutes after administration of the product. The percentage of mice which lose their equilibrium reflex, that is to say which become incapable of retaining their balance on the cylinder for a period of 2 minutes, is noted.
Using the regression straight line method, a 50% neurotoxic dose (NTD 50) is calculated, which thus expresses the average level of the first neuromuscular effects under the influence of the studied product.

male Swiss mice = assay: Maximum electrical seizure; format: in vivo; conditions: Mus musculus, po, 0.25 h, read-out: Maximum electrical seizure, ED50
Excerpt: Maximum electrical seizure
The technique used is that recommended by GOODMAN (L. S.), SING-GREWALD (M.), BROWN (V. C.) and […] (E. A.), Am.
The animals tested are male Swiss mice grouped into batches of 10. The normal threshold of the electric shock which is capable of causing tonic extension of the front paws is first determined for each animal.

Acute toxicity, peroral = conditions: mouse, in vivo, po; at 950 mg/kg, peroral, mice
Procedure: In order to locate the boundary separating the pharmacological effects from the toxicity of the products, a very approximate assessment of the toxicity was carried out on mice (batches of 10 animals) after peroral treatment.

mice [1] = assay: β-Mercaptopropionic acid seizure; format: in vivo; conditions: Mus musculus, po, 0.25 h, read-out: β-Mercaptopropionic acid seizure, ED50
Procedure: β-Mercaptopropionic acid seizure
β-Mercaptopropionic acid is an inhibitor of glutamatedecarboxylase (GAD), which is an enzyme which catalyses the conversion of glutamate to γ-aminobutyric acid (GABA). Its action thus manifests itself in a lowering of the GABA level and the occurrence of general tonico-clonic seizures 3 to 4 minutes after it has been administered. β-Mercaptopropionic acid was administered to mice intraperitoneally at a dose of 40 mg/kg.

mouse = assay: Ouabain seizure; format: in vivo; conditions: Mus musculus, po, 0.25 h, read-out: Ouabain seizure, ED50
Procedure: Ouabain was administered intra-ventricularly at a dose of 5 γ/mouse in a volume of 0.02 ml.

mice [2] = assay: Anoxia as a result of confinement; format: in vivo; conditions: Mus musculus, ip, read-out: Anoxia as a result of confinement, % increase in the survival time
Procedure: Anoxia as a result of confinement
Mice (in batches of 20) are placed in a 200 cm^3 hermetically sealed chamber (a wide-mouthed glass vessel) which is under normal pressure and has a normal content of atmospheric oxygen. All of the treatments are administered intraperitoneally immediately before introduction into the chamber. The animal is considered to be dead at the moment when breathing stops.
Since the wide-mouthed vessels chosen are very small, the motor activity of the animals is extremely low and this eliminates, in principle, the possibility of a positive result due to a sedative effect.
Therefore, the percentage increase in the survival time of the treated animals is noted, relative to the batch.

male OFl mice = assay: Pentetrazole seizure (mortality after i.p. pentetrazole 125 mg/kg); format: in vivo; conditions: Mus musculus, po, 0.25 h, read-out: Pentetrazole seizure, ED50
Procedure: This test was carried out on batches of 10 male OFl mice which had fasted since the day before and were placed in individual cages, in accordance with the method of Cheymol (J.) Acta. Pharmacol., (1950), 2, 1-55.
The treatments were carried out perorally 15 minutes before intraperitoneal (i.p.) injection of a solution of pentetrazole (125 mg/kg).
The mortality is recorded 3 hours after this injection.
It is to be noted that the 50% effective doses (ED50), where these have been determined, were calculated by the method of MOOD (J. Am. Statist. Assoc., (1965), 60, 967-78).

For C#CCC1(C(=O)[O-])CCCCC1.[Na+], the “Rotarod test, % of failures” value (male mice) was 40%, the ED50 (male Swiss mice) was 478 mg/kg and the mortality (Acute toxicity, peroral) was 10%. The ED50 (mice [1]) was 245 mg/kg, the ED50 (mouse) was 507 mg/kg and the ILS at 280 mg/kg (mice [2]) was 48%. It also gave an ED50 (male OFl mice) of 120 mg/kg.
